# Assay results taken from PubChem BioAssay (NCI).
#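 Growth conditions: 96-well plates. Treatment: test compound, 48 hours, 5 concentrations. Analysis: linear interpolation between bracketing concentrations; unreached endpoints set to highest concentration. GI50: concentration for 50% inhibition of growth. TGI marks complete inhibition of growth.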
# Legend:
# Experiment in all cases: growth of human tumour cells (NCI), 48 h
# A549 NSCLC = tested on: A549 NSCLC
# HCC-2998 colon = tested on: HCC-2998 colon
# SK-OV-3 ovarian = tested on: SK-OV-3 ovarian
# SNB-19 CNS = tested on: SNB-19 CNS
# MOLT-4 leukemia = tested on: MOLT-4 leukemia
# 786-0 renal = tested on: 786-0 renal
# NCI-H23 lung = tested on: NCI-H23 lung
# HOP-62 NSCLC = tested on: HOP-62 NSCLC
# SW-620 colon = tested on: SW-620 colon
# MDA-MB-231 breast = tested on: MDA-MB-231 breast
# U251 CNS = tested on: U251 CNS
# A498 renal = tested on: A498 renal
# T-47D breast = tested on: T-47D breast
# KM12 colon = tested on: KM12 colon
# HS 578T breast = tested on: HS 578T breast
# OVCAR-4 ovarian = tested on: OVCAR-4 ovarian
# SF-268 CNS = tested on: SF-268 CNS
# HL-60(TB) leukemia = tested on: HL-60(TB) leukemia
# SN12C renal = tested on: SN12C renal
# NCI-H460 lung = tested on: NCI-H460 lung
# M14 melanoma = tested on: M14 melanoma
# DU-145 prostate = tested on: DU-145 prostate
# BT-549 breast = tested on: BT-549 breast
# SF-295 CNS = tested on: SF-295 CNS
# HCT-116 colon = tested on: HCT-116 colon
# MCF7 breast = tested on: MCF7 breast
# HCT-15 colon = tested on: HCT-15 colon
# NCI-H522 lung = tested on: NCI-H522 lung
# OVCAR-8 ovarian = tested on: OVCAR-8 ovarian
# TK-10 renal = tested on: TK-10 renal
# UACC-62 melanoma = tested on: UACC-62 melanoma
# SF-539 CNS = tested on: SF-539 CNS
# K-562 leukemia = tested on: K-562 leukemia
# ACHN renal = tested on: ACHN renal
# SK-MEL-28 melanoma = tested on: SK-MEL-28 melanoma
# SR leukemia = tested on: SR leukemia
# OVCAR-3 ovarian = tested on: OVCAR-3 ovarian
# NCI/ADR-RES ovarian = tested on: NCI/ADR-RES ovarian
# HOP-92 NSCLC = tested on: HOP-92 NSCLC
# MALME-3M melanoma = tested on: MALME-3M melanoma
# RPMI-8226 leukemia = tested on: RPMI-8226 leukemia
# CAKI-1 renal = tested on: CAKI-1 renal
# SK-MEL-2 melanoma = tested on: SK-MEL-2 melanoma
# MDA-MB-435 = tested on: MDA-MB-435
# EKVX NSCLC = tested on: EKVX NSCLC
# LOX IMVI melanoma = tested on: LOX IMVI melanoma
# SNB-75 CNS = tested on: SNB-75 CNS
# MDA-MB-468 breast = tested on: MDA-MB-468 breast
# SK-MEL-5 melanoma = tested on: SK-MEL-5 melanoma
# CCRF-CEM leukemia = tested on: CCRF-CEM leukemia
# COLO 205 colon = tested on: COLO 205 colon
# UACC-257 melanoma = tested on: UACC-257 melanoma
# HT29 colon = tested on: HT29 colon
# PC-3 prostate = tested on: PC-3 prostate
# UO-31 renal = tested on: UO-31 renal
# NCI-H226 lung = tested on: NCI-H226 lung
# IGROV1 ovarian = tested on: IGROV1 ovarian
# OVCAR-5 ovarian = tested on: OVCAR-5 ovarian
# RXF 393 renal = tested on: RXF 393 renal
smiles,measurement,setting,value
CC(=O)Nc1nc(-c2ccc(N3CCN(C)CC3)c(NS(=O)(=O)c3cccc4c(N(C)C)cccc34)c2)cs1,GI50,A549 NSCLC,14.2 µM
same,TGI,A549 NSCLC,30.2 µM
same,GI50,HCC-2998 colon,12.4 µM
same,TGI,HCC-2998 colon,24 µM
same,GI50,SK-OV-3 ovarian,13.2 µM
same,TGI,SK-OV-3 ovarian,26.8 µM
same,GI50,SNB-19 CNS,12.2 µM
same,TGI,SNB-19 CNS,23.5 µM
same,GI50,MOLT-4 leukemia,13.3 µM
same,TGI,MOLT-4 leukemia,37.9 µM
same,GI50,786-0 renal,11.7 µM
same,TGI,786-0 renal,24.6 µM
same,GI50,NCI-H23 lung,11.3 µM
same,TGI,NCI-H23 lung,23.6 µM
same,GI50,HOP-62 NSCLC,12.6 µM
same,TGI,HOP-62 NSCLC,25.8 µM
same,GI50,SW-620 colon,13.1 µM
same,TGI,SW-620 colon,25.4 µM
same,GI50,MDA-MB-231 breast,14.4 µM
same,TGI,MDA-MB-231 breast,26.6 µM
same,GI50,U251 CNS,11.1 µM
same,TGI,U251 CNS,23.3 µM
same,GI50,A498 renal,13.1 µM
same,TGI,A498 renal,24.5 µM
same,GI50,T-47D breast,12 µM
same,TGI,T-47D breast,28.9 µM
same,GI50,KM12 colon,14.4 µM
same,TGI,KM12 colon,28.4 µM
same,GI50,HS 578T breast,11.6 µM
same,TGI,HS 578T breast,43.6 µM
same,GI50,OVCAR-4 ovarian,13.6 µM
same,TGI,OVCAR-4 ovarian,28.2 µM
same,GI50,SF-268 CNS,12.4 µM
same,TGI,SF-268 CNS,25.3 µM
same,GI50,HL-60(TB) leukemia,9.4 µM
same,TGI,HL-60(TB) leukemia,24.9 µM
same,GI50,SN12C renal,12.1 µM
same,TGI,SN12C renal,23.7 µM
same,GI50,NCI-H460 lung,14.4 µM
same,TGI,NCI-H460 lung,29 µM
same,GI50,M14 melanoma,12.8 µM
same,TGI,M14 melanoma,25.8 µM
same,GI50,DU-145 prostate,14 µM
same,TGI,DU-145 prostate,26 µM
same,GI50,BT-549 breast,11.3 µM
same,TGI,BT-549 breast,23.5 µM
same,GI50,SF-295 CNS,7.22 µM
same,TGI,SF-295 CNS,18.3 µM
same,GI50,HCT-116 colon,12.3 µM
same,TGI,HCT-116 colon,28.8 µM
same,GI50,MCF7 breast,10.8 µM
same,TGI,MCF7 breast,24 µM
same,GI50,HCT-15 colon,12.6 µM
same,TGI,HCT-15 colon,25.4 µM
same,GI50,NCI-H522 lung,12.6 µM
same,TGI,NCI-H522 lung,25.6 µM
same,GI50,OVCAR-8 ovarian,16.9 µM
same,TGI,OVCAR-8 ovarian,45.6 µM
same,GI50,TK-10 renal,16.4 µM
same,TGI,TK-10 renal,29.1 µM
same,GI50,UACC-62 melanoma,12.8 µM
same,TGI,UACC-62 melanoma,24.1 µM
same,GI50,SF-539 CNS,9.78 µM
same,TGI,SF-539 CNS,20.1 µM
same,GI50,K-562 leukemia,15.9 µM
same,TGI,K-562 leukemia,85.5 µM
same,GI50,ACHN renal,13.7 µM
same,TGI,ACHN renal,25.3 µM
same,GI50,SK-MEL-28 melanoma,10.5 µM
same,TGI,SK-MEL-28 melanoma,21.1 µM
same,GI50,SR leukemia,3.27 µM
same,TGI,SR leukemia,18.2 µM
same,GI50,OVCAR-3 ovarian,11.5 µM
same,TGI,OVCAR-3 ovarian,23.3 µM
same,GI50,NCI/ADR-RES ovarian,16.6 µM
same,TGI,NCI/ADR-RES ovarian,37.1 µM
same,GI50,HOP-92 NSCLC,9.15 µM
same,TGI,HOP-92 NSCLC,20.4 µM
same,GI50,MALME-3M melanoma,11.4 µM
same,TGI,MALME-3M melanoma,22.4 µM
same,GI50,RPMI-8226 leukemia,8.05 µM
same,TGI,RPMI-8226 leukemia,53.6 µM
same,GI50,CAKI-1 renal,14 µM
same,TGI,CAKI-1 renal,26.2 µM
same,GI50,SK-MEL-2 melanoma,13.6 µM
same,TGI,SK-MEL-2 melanoma,26.2 µM
same,GI50,MDA-MB-435,13 µM
same,TGI,MDA-MB-435,25.4 µM
same,GI50,EKVX NSCLC,13.1 µM
same,TGI,EKVX NSCLC,25.7 µM
same,GI50,LOX IMVI melanoma,10.7 µM
same,TGI,LOX IMVI melanoma,21.9 µM
same,GI50,SNB-75 CNS,9.24 µM
same,TGI,SNB-75 CNS,19.7 µM
same,GI50,MDA-MB-468 breast,10.7 µM
same,TGI,MDA-MB-468 breast,22.3 µM
same,GI50,SK-MEL-5 melanoma,11.9 µM
same,TGI,SK-MEL-5 melanoma,23.2 µM
same,GI50,CCRF-CEM leukemia,13.2 µM
same,TGI,CCRF-CEM leukemia,38.2 µM
same,GI50,COLO 205 colon,12.5 µM
same,TGI,COLO 205 colon,27.9 µM
same,GI50,UACC-257 melanoma,13.1 µM
same,TGI,UACC-257 melanoma,25.8 µM
same,GI50,HT29 colon,8.91 µM
same,TGI,HT29 colon,21.3 µM
same,GI50,PC-3 prostate,11.2 µM
same,TGI,PC-3 prostate,28.1 µM
same,GI50,UO-31 renal,10.9 µM
same,TGI,UO-31 renal,21.7 µM
same,GI50,NCI-H226 lung,13.3 µM
same,TGI,NCI-H226 lung,28.3 µM
same,GI50,IGROV1 ovarian,14.2 µM
same,TGI,IGROV1 ovarian,26.3 µM
same,GI50,OVCAR-5 ovarian,12.6 µM
same,TGI,OVCAR-5 ovarian,23.9 µM
same,GI50,RXF 393 renal,9.16 µM
same,TGI,RXF 393 renal,20.3 µM
